Experimental data from ChEMBL document CHEMBL3414549, “Structural investigation of B-Raf paradox breaker and inducer inhibitors” (J Med Chem, 2015).
Calls of active or inactive are those of the source. The rule behind the calls is not given here.

Tests used:
[1] = target: T1, Serine/threonine-protein kinase B-raf (Homo sapiens, UniProt P15056); assay: Binding affinity to recombinant human full-length wild type B-Raf (unknown origin) assessed as TPIQAGGYGAFPVH accessible protease cleavage peptide level by LC-MS/MS analysis relative to control; also: test concentration or dose not given here
Target sequence in this assay (P15056 whole entry): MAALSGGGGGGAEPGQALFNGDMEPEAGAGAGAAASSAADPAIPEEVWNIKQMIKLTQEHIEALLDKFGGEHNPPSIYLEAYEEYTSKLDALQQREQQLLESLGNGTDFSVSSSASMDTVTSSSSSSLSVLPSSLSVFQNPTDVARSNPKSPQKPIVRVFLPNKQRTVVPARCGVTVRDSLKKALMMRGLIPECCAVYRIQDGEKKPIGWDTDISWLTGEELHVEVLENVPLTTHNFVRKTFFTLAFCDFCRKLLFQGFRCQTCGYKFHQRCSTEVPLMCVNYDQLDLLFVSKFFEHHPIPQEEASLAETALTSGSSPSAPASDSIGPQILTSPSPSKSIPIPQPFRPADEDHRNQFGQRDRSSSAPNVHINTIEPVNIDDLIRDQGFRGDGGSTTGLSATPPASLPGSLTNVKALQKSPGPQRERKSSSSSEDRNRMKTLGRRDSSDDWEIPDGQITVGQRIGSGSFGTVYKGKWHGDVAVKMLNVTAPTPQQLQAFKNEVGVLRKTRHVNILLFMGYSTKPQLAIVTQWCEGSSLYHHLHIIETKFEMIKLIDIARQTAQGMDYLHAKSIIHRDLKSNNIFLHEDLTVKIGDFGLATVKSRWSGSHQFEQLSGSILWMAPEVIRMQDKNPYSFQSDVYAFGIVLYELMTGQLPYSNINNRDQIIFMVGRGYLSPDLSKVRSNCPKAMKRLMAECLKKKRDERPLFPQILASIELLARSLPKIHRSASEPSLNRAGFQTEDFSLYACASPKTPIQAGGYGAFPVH

[2] = target: T1, Serine/threonine-protein kinase B-raf; assay: Binding affinity to recombinant human full-length wild type B-Raf (unknown origin) assessed as VFLPNK accessible protease cleavage peptide level by LC-MS/MS analysis relative to control
Target sequence in this assay (P15056 whole entry): as above

[3] = target: T1, Serine/threonine-protein kinase B-raf; assay: Binding affinity to recombinant human full-length wild type B-Raf (unknown origin) assessed as SIPIPQPFRPADEDHR accessible protease cleavage peptide level by LC-MS/MS analysis relative to control; also: test concentration or dose not given here
Target sequence in this assay (P15056 whole entry): as above

[4] = target: T1, Serine/threonine-protein kinase B-raf; assay: Binding affinity to recombinant human full-length wild type B-Raf (unknown origin) assessed as LIDIAR accessible protease cleavage peptide level by LC-MS/MS analysis relative to control; also: test concentration or dose not given here
Target sequence in this assay (P15056 whole entry): as above

[5] = target: T1, Serine/threonine-protein kinase B-raf; assay: Binding affinity to recombinant human full-length wild type B-Raf (unknown origin) assessed as SASEPSLNR accessible protease cleavage peptide level by LC-MS/MS analysis relative to control
Target sequence in this assay (P15056 whole entry): as above

[6] = target: T1, Serine/threonine-protein kinase B-raf; assay: Binding affinity to recombinant human full-length wild type B-Raf (unknown origin) assessed as SPQKPIVR accessible protease cleavage peptide level by LC-MS/MS analysis relative to control
Target sequence in this assay (P15056 whole entry): as above

[7] = target: T1, Serine/threonine-protein kinase B-raf; assay: Binding affinity to recombinant human full-length wild type B-Raf (unknown origin) assessed as 7VVPAR accessible protease cleavage peptide level by LC-MS/MS analysis relative to control; also: test concentration or dose not given here
[8] = target: T1, Serine/threonine-protein kinase B-raf; assay: Binding affinity to recombinant human full-length wild type B-Raf (unknown origin) assessed as GDGGSTTGLSATPPASLPGSLTNVK accessible protease cleavage peptide level by LC-MS/MS analysis relative to control
[9] = target: T1, Serine/threonine-protein kinase B-raf; assay: Binding affinity to recombinant human full-length wild type B-Raf (unknown origin) assessed as DSSDDWEIPDGQITVGQR accessible protease cleavage peptide level by LC-MS/MS analysis relative to control; also: test concentration or dose not given here
[10] = target: T1, Serine/threonine-protein kinase B-raf; assay: Binding affinity to recombinant human full-length wild type B-Raf (unknown origin) assessed as IGDFGLATVK accessible protease cleavage peptide level by LC-MS/MS analysis relative to control
[11] = target: T1, Serine/threonine-protein kinase B-raf; assay: Binding affinity to recombinant human full-length wild type B-Raf (unknown origin) assessed as NEVGVLR accessible protease cleavage peptide level by LC-MS/MS analysis relative to control
[12] = target: T1, Serine/threonine-protein kinase B-raf; assay: Binding affinity to recombinant human full-length wild type B-Raf (unknown origin) assessed as QTAQGMDYLHAK accessible protease cleavage peptide level by LC-MS/MS analysis relative to control
[13] = target: T1, Serine/threonine-protein kinase B-raf; assay: Binding affinity to recombinant human full-length wild type B-Raf (unknown origin) assessed as DQIIFMVGR accessible protease cleavage peptide level by LC-MS/MS analysis relative to control
[14] = target: T1, Serine/threonine-protein kinase B-raf; assay: Binding affinity to recombinant human full-length wild type B-Raf (unknown origin) assessed as SIIHRDLK accessible protease cleavage peptide level by LC-MS/MS analysis relative to control
[15] = target: T1, Serine/threonine-protein kinase B-raf; assay: Binding affinity to recombinant human full-length wild type B-Raf (unknown origin) assessed as GYLSPDLSK accessible protease cleavage peptide level by LC-MS/MS analysis relative to control
[16] = target: T1, Serine/threonine-protein kinase B-raf; assay: Binding affinity to recombinant human full-length wild type B-Raf (unknown origin) assessed as SNNIFLHEDLTVK accessible protease cleavage peptide level by LC-MS/MS analysis relative to control; also: test concentration or dose not given here
[17] = target: T1, Serine/threonine-protein kinase B-raf; assay: Binding affinity to recombinant human full-length wild type B-Raf (unknown origin) assessed as WHGDVAVK accessible protease cleavage peptide level by LC-MS/MS analysis relative to control
[18] = target: T1, Serine/threonine-protein kinase B-raf; assay: Binding affinity to recombinant human full-length wild type B-Raf (unknown origin) assessed as DSLKK accessible protease cleavage peptide level by LC-MS/MS analysis relative to control
[19] = target: T1, Serine/threonine-protein kinase B-raf; assay: Binding affinity to recombinant human full-length wild type B-Raf (unknown origin) assessed as IGSGSFGTVYK accessible protease cleavage peptide level by LC-MS/MS analysis relative to control
[20] = target: T2, Serine/threonine-protein kinase B-raf (Homo sapiens, UniProt P15056, V600E); assay: Inhibition of B-Raf V600E mutant (unknown origin) assessed as inhibition of phosphorylation of peptide substrate
[21] = target: T1, Serine/threonine-protein kinase B-raf; assay: Inhibition of phosphorylation of ERK level in human SW620 cells expressing wild type B-Raf at 3 microM after 48 hrs by immunoblotting analysis; format: cell-based; settings: SW-620
SW-620 = assay: Inhibition of cell proliferation in human SW620 cells expressing wild type B-Raf after 96 hrs by MTT assay; format: functional, cell-based
[22] = target: T1, Serine/threonine-protein kinase B-raf; assay: Inhibition of phosphorylation of MEK level in human SW620 cells expressing wild type B-Raf at 3 microM after 48 hrs by immunoblotting analysis; format: cell-based; settings: SW-620
[23] = target: T2, Serine/threonine-protein kinase B-raf; assay: Inhibition of B-Raf V600E mutant in human A375 cells assessed as phosphorylation of ERK; format: cell-based, A-375
[24] = target: T1, Serine/threonine-protein kinase B-raf; assay: Binding affinity to wild type B-Raf (unknown origin)
A-375 = assay: Inhibition of cell proliferation in human A375 cells expressing B-Raf V600E mutant after 96 hrs by MTT assay; format: functional, cell-based
[25] = target: T1, Serine/threonine-protein kinase B-raf; assay: Activation of tumorigenic wild type B-Raf in human IPC-298 cells with Ras mutation assessed as phosphorylation of ERK; format: cell-based
Target sequence in this assay (P15056 2-766 limits assumed, change not shown): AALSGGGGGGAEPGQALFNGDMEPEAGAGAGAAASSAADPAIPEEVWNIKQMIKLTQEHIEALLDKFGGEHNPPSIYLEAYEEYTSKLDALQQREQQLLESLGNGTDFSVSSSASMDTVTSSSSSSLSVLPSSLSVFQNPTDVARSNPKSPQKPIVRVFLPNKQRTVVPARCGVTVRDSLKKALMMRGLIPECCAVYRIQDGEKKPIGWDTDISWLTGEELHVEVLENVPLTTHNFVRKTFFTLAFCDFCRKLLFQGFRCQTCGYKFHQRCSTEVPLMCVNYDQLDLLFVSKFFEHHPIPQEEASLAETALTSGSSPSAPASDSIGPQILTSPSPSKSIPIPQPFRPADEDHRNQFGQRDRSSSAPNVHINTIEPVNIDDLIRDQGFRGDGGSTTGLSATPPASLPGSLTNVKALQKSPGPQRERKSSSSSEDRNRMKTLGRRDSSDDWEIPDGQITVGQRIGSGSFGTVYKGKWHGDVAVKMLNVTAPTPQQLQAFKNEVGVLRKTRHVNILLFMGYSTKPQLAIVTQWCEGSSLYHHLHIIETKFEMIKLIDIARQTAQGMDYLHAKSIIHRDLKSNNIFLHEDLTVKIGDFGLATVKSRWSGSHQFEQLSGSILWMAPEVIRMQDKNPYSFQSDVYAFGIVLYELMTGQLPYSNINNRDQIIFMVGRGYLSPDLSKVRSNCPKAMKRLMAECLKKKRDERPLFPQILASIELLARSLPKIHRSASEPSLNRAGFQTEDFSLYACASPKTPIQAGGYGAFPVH

[26] = target: T2, Serine/threonine-protein kinase B-raf; assay: Binding affinity to B-Raf V600E mutant (unknown origin)

T2 sequence (P15056 2-766 V600E limits assumed): as the sequence (P15056 2-766 limits assumed, change not shown) above, with V599E counted along it

SMILES | Ratio [1] | Ratio [2] | Ratio [3] | Ratio [4] | Ratio [5] | Ratio [6] | Ratio [7] | Ratio [8] | Ratio [9] | Ratio [10] | Ratio [11] | Ratio [12] | Ratio [13] | Ratio [14] | Ratio [15] | Ratio [16] | Ratio [17] | Ratio [18] | Ratio [19] | IC50 [20] | also measured
Nc1ncnc2c1ncn2[C@@H]1O[C@H](COP(=O)(O)OP(=O)(O)OP(=O)(O)O)[C@@H](O)[C@H]1O | 0.95 | 0.78 | 0.75 | 0.54 | 0.94 | 0.64 | 0.97 | 0.68 | 0.62 | 0.72 | 0.34 | 0.81 | 0.57 | 1.16 | 0.76 | 0.77 | 0.75 | 0.76 | 0.62 |  | 
Nc1ncnc2c1ncn2[C@@H]1O[C@H](COP(=O)(O)OP(=O)(O)NP(=O)(O)O)[C@@H](O)[C@H]1O | 1.14 | 0.91 | 1 | 0.55 | 0.95 | 0.83 | 0.89 | 0.98 | 0.71 | 0.79 | 0.46 | 0.72 | 0.62 | 0.37 | 0.82 | 1.03 | 0.67 | 0.76 | 0.83 |  | 
CCN(C)S(=O)(=O)Nc1ccc(F)c(C(=O)c2c[nH]c3ncc(Cl)cc23)c1F | 1.42 | 1.01 | 1.45 | 0.5 | 1.8 | 1.11 | 1.26 | 1.55 | 0.56 | 0.53 | 0.37 | 0.9 | 0.83 | 0.47 | 0.91 | 0.21 | 0.5 | 1.71 | 0.62 | < 100 nM | inhibition [21]: Active; inhibition (SW-620): inactive; inhibition [22]: Active; IC50 [23]: < 1000 nM; Kd [24]: 400 nM; inhibition (A-375): Active; EC50 [25]: > 10000 nM; Kd [26]: 550 nM
CCN(C)S(=O)(=O)Nc1ccc(F)c(C(=O)c2c[nH]c3ncc(-c4ccc(Cl)cc4)cc23)c1F | 1.22 | 0.73 | 1.27 | 0.23 | 1.53 | 0.94 | 0.96 | 1.16 | 0.37 | 0.3 | 0.12 | 0.36 | 0.48 | 0.3 | 0.41 | 0.11 | 0.36 | 0.93 | 0.42 | < 100 nM | inhibition [21]: Active; inhibition (SW-620): inactive; inhibition [22]: Active; IC50 [23]: < 1000 nM; Kd [24]: 690 nM; inhibition (A-375): Active; EC50 [25]: > 10000 nM; Kd [26]: 1410 nM
Nc1ncnc2c1ncn2[C@@H]1O[C@H](COP(=O)(O)OP(=O)(O)O)[C@@H](O)[C@H]1O | 1.42 | 1.24 | 1.34 | 0.86 | 1.04 | 1.14 | 1.21 | 1.28 | 0.83 | 1.3 | 1.13 | 1.22 | 1.36 | 0.32 | 1.27 | 1.9 | 0.99 | 1.34 | 1.18 |  | 
